Test results reported in PubChem BioAssay (NCI).
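Following 48 hours of exposure in 96-well plates, responses at five concentrations were used to interpolate endpoints linearly. GI50 marks 50% less growth. TGI marks complete inhibition of growth.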

How the values were obtained:
Experiment in all cases: DTP human tumour cell line panel, 48 h
[1] = system: K-562 leukemia
[2] = system: SF-539 CNS
[3] = system: MALME-3M melanoma
[4] = system: CAKI-1 renal
[5] = system: NCI-H226 lung
[6] = system: NCI-H522 lung
[7] = system: T-47D breast
[8] = system: SW-620 colon
[9] = system: MDA-MB-231 breast
[10] = system: HOP-92 NSCLC
[11] = system: SK-MEL-28 melanoma
[12] = system: HOP-62 NSCLC
[13] = system: SF-268 CNS
[14] = system: SR leukemia
[15] = system: SF-295 CNS
[16] = system: MDA-MB-435
[17] = system: SNB-19 CNS
[18] = system: OVCAR-3 ovarian
[19] = system: PC-3 prostate
[20] = system: CCRF-CEM leukemia
[21] = system: DU-145 prostate
[22] = system: LOX IMVI melanoma
[23] = system: OVCAR-8 ovarian
[24] = system: HCT-15 colon
[25] = system: HL-60(TB) leukemia
[26] = system: MCF7 breast
[27] = system: SK-OV-3 ovarian
[28] = system: 786-0 renal
[29] = system: HCT-116 colon
[30] = system: A498 renal
[31] = system: HT29 colon
[32] = system: HCC-2998 colon
[33] = system: HS 578T breast
[34] = system: OVCAR-4 ovarian
[35] = system: NCI-H460 lung
[36] = system: COLO 205 colon
[37] = system: ACHN renal
[38] = system: SNB-75 CNS
[39] = system: RPMI-8226 leukemia
[40] = system: RXF 393 renal
[41] = system: KM12 colon
[42] = system: SK-MEL-2 melanoma
[43] = system: M14 melanoma
[44] = system: EKVX NSCLC
[45] = system: BT-549 breast
[46] = system: OVCAR-5 ovarian
[47] = system: NCI-H23 lung
[48] = system: TK-10 renal
[49] = system: UACC-257 melanoma
[50] = system: IGROV1 ovarian
[51] = system: NCI/ADR-RES ovarian
[52] = system: SK-MEL-5 melanoma
[53] = system: U251 CNS
[54] = system: A549 NSCLC
[55] = system: MOLT-4 leukemia

Compound `COC(=O)[C@]12CC[C@@H](C)[C@H](C)[C@@H]1C1=CC[C@@H]3[C@@]4(C)C[C@@H](OC(C)=O)[C@H](OC(C)=O)[C@@](C)(COC(C)=O)[C@@H]4[C@H](O)C[C@@]3(C)[C@]1(C)CC2` has a GI50 [1] of 0.356 µM, a TGI [1] of over 100 µM and a GI50 [2] of 3.92 µM. The TGI [2] was over 100 µM, the GI50 [3] was 3.82 µM and the TGI [3] was 74.8 µM. It also gave a GI50 [4] of 0.93 µM, a TGI [4] of over 100 µM and a GI50 [5] of 5.09 µM. It also gave a TGI [5] of over 100 µM, a GI50 [6] of 1.92 µM and a TGI [6] of 89 µM. The GI50 [7] was 1.03 µM, the TGI [7] was 8.04 µM and the GI50 [8] was 0.892 µM. The TGI [8] was over 100 µM, the GI50 [9] was 1.91 µM and the TGI [9] was over 100 µM. The GI50 [10] was 3.9 µM, the TGI [10] was over 100 µM and the GI50 [11] was 2.74 µM. For the same compound, the TGI [11] was over 100 µM, the GI50 [12] was 3.25 µM and the TGI [12] was over 100 µM. It also gave a GI50 [13] of 2.62 µM, a TGI [13] of over 100 µM and a GI50 [14] of 0.465 µM. The TGI [14] was 9.4 µM, the GI50 [15] was 2.84 µM and the TGI [15] was over 100 µM. The GI50 [16] was 1.86 µM, the TGI [16] was over 100 µM and the GI50 [17] was 3.54 µM. For the same compound, the TGI [17] was over 100 µM, the GI50 [18] was 2.3 µM and the TGI [18] was over 100 µM. The GI50 [19] was 0.535 µM, the TGI [19] was over 100 µM and the GI50 [20] was 1.96 µM. It also gave a TGI [20] of over 100 µM, a GI50 [21] of 3.55 µM and a TGI [21] of over 100 µM. It also gave a GI50 [22] of 0.54 µM, a TGI [22] of over 100 µM and a GI50 [23] of 3.15 µM. The TGI [23] was over 100 µM, the GI50 [24] was 0.43 µM and the TGI [24] was over 100 µM. For the same compound, the GI50 [25] was 0.59 µM, the TGI [25] was 11.4 µM and the GI50 [26] was 1.57 µM. It also gave a TGI [26] of 27.9 µM, a GI50 [27] of 3.1 µM and a TGI [27] of over 100 µM. For the same compound, the GI50 [28] was 1.8 µM, the TGI [28] was over 100 µM and the GI50 [29] was 0.423 µM. It also gave a TGI [29] of over 100 µM, a GI50 [30] of 1.92 µM and a TGI [30] of 68.5 µM. For the same compound, the GI50 [31] was 0.659 µM, the TGI [31] was over 100 µM and the GI50 [32] was 2.81 µM. The TGI [32] was over 100 µM, the GI50 [33] was 8.15 µM and the TGI [33] was over 100 µM. The GI50 [34] was 3.21 µM, the TGI [34] was over 100 µM and the GI50 [35] was 0.505 µM. The TGI [35] was 16.2 µM, the GI50 [36] was 0.513 µM and the TGI [36] was 6.25 µM. It also gave a GI50 [37] of 2.71 µM, a TGI [37] of over 100 µM and a GI50 [38] of 4.32 µM. The TGI [38] was over 100 µM, the GI50 [39] was 1.04 µM and the TGI [39] was over 100 µM. It also gave a GI50 [40] of 6.88 µM, a TGI [40] of 61.4 µM and a GI50 [41] of 1.03 µM. It also gave a TGI [41] of over 100 µM, a GI50 [42] of 1.85 µM and a TGI [42] of over 100 µM. It also gave a GI50 [43] of 1.28 µM, a TGI [43] of over 100 µM and a GI50 [44] of 2.14 µM. For the same compound, the TGI [44] was over 100 µM, the GI50 [45] was 1.4 µM and the TGI [45] was 81.4 µM. It also gave a GI50 [46] of 7.04 µM, a TGI [46] of over 100 µM and a GI50 [47] of 2.25 µM. For the same compound, the TGI [47] was over 100 µM, the GI50 [48] was 3.08 µM and the TGI [48] was over 100 µM. For the same compound, the GI50 [49] was 2.43 µM, the TGI [49] was 8.21 µM and the GI50 [50] was 2.17 µM. It also gave a TGI [50] of over 100 µM, a GI50 [51] of 3.16 µM and a TGI [51] of over 100 µM. The GI50 [52] was 0.367 µM, the TGI [52] was 1.72 µM and the GI50 [53] was 0.86 µM. It also gave a TGI [53] of over 100 µM, a GI50 [54] of 2.06 µM and a TGI [54] of over 100 µM. It also gave a GI50 [55] of 0.901 µM and a TGI [55] of 11.5 µM.
